Experimental findings from US7217710B2, “Substituted pyrazolopyrimidines” (SmithKline Beecham Corporation, priority 2001, dated 2007) are described below.

T1 sequence (Q02763 762-1104): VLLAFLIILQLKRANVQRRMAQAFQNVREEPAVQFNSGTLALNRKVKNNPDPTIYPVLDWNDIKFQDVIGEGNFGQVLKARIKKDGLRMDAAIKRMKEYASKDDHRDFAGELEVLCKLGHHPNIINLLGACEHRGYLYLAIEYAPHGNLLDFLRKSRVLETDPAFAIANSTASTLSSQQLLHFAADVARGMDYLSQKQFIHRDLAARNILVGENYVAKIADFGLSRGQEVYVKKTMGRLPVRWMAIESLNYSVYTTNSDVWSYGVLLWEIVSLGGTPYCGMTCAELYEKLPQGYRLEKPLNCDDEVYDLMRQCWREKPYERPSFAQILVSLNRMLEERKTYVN

One assay addresses T1, GST-TIE2 (intracellular domains of human TIE2) (Homo sapiens, UniProt Q02763).
T1 construct: made in house
The assay is described as follows: TIE-2 Enzyme Assay (TIE2-E2), LANCE method. It is filed as biochemical.
Details: not given
The source says:
TIE-2 Enzyme Assay (TIE2-E2
The TIE-2 enzyme assay uses the LANCE method (Wallac) and GST-TIE2, baculovirus-expressed recombinant constructs of the intracellular domains of human TIE2 (amino acids 762–1104, GenBank Accession # L06139) tagged by GST). The method measures the ability of the purified enzymes to catalyse the transfer of the γ-phosphate from ATP onto tyrosine residues in a biotinylated synthetic peptide, D1–15 (biotin-C6-LEARLVAYEGWVAGKKKamide). This peptide phosphorylation is detected using the following procedure: for enzyme preactivation, GST-TIE2 is incubated for 2 hours at room temperature with 80 μM ATP, 10 mM MgCl2, 0.1 mg/ml BSA, 0.01% Tween 20 and 1 mM DTT in 100 mM HEPES buffer (pH7.4). 5 nM preactivated GST-TIE2 is incubated for 2 hours at room temperature in 96 well plates with 1 uM D1–15 peptide, 80 uM ATP, 10 mM MgCl2, 0.1 mg/ml BSA, 0.01% Tween 20 and titrated test compound (diluted from a 10 mM stock in DMSO, final DMSO concentration is 2.4%) in 100 mM HEPES (pH7.4). The reaction is stopped by the addition of EDTA (final concentration 45 mM). Streptavidin linked-APC (allophycocyanin, PerkinElmer) and europium-labeled anti-phosphotyrosine antibody (PerkinElmer) are then added at the final concentration of 8 nM and 1 nM, respectively. The APC signal is measured using an Wallac Multilabel 1420 counter. (Wallac Berthold Japan). The percent inhibition of activity is calculated relative to blank control wells. The concentration of test compound that inhibits 50% of activity (IC50) is interpolated using nonlinear regression (Levernberg-Marquardt) and the equation, y=Vmax (1−x/(K+x))+Y2, where “K” is equal to the IC50. The IC50 values are converted to pIC50 values, i.e., −log IC50 in Molar concentration.
With `Cc1cc(-c2nn(C)c3nc(NCCN4CCOCC4)ncc23)ccc1NC(=O)Nc1cccc(C(F)(F)F)c1` [Example 48, 1-{2-Methyl-4-[methyl-(2-morpholin-4-yl-ethylamino)-1H -pyrazolo[3,4-d]pyrimidin-3-yl]-phenyl}-3-(3-trifluoromethyl-phenyl)-urea], the “TIE2 PIC50 TIE2-E2 assay” value is “++ (++ = PIC50 = 6.00 to less than 7.00)”.

For the molecule `Cc1cc(-c2nn(C)c3nc(NCCN4CCOCC4)ncc23)ccc1NC(=O)Nc1ccc(Cl)c(C(F)(F)F)c1` [Example 44, 1-(Chloro-trifluoromethyl-phenyl)-3-{methyl-[methyl-(2-morpholin-4-yl-ethylamino)-1H-pyrazolo[3,4-d]pyrimidin-3-yl]-phenyl}-urea], the “TIE2 PIC50 TIE2-E2 assay” value is on record as “++ (++ = PIC50 = 6.00 to less than 7.00)”. Still for that read-out and setting: with `CN1CCC(N(C)c2ncnc3[nH]nc(-c4ccc(NC(=O)Nc5cc(C(F)(F)F)ccc5F)cc4)c23)CC1` [Example 65, 1-(2-fluoro-5-trifluoromethyl-phenyl)-3-(4-[methyl-(1-methyl-piperidin-4-ylamino]-1H-pyrazolo[3,4-d]pyrimidin-3-yl]-phenyl}-urea] the entry was “+ (+ = PIC50 = 5.00 to less than 6.00)”.

With `Cc1cc(-c2nn(C)c3nc(NCCN4CCOCC4)ncc23)ccc1NC(=O)Nc1cc(C(F)(F)F)ccc1F` [Example 43, 1-(2-Fluoro-5-trifluoromethyl-phenyl)-3-{methyl-[methyl-(2-morpholin-4-yl-ethylamino)-1H-pyrazolo[3,4-d]pyrimidin-3-yl]-phenyl}-urea], the “TIE2 PIC50 TIE2-E2 assay” value is reported as “+++ (+++ = PIC50 = 7.00 to less than 7.40)”. Still for that read-out and setting: with “2,3-Dichloro-N-{4-[1-methyl-6-(3-diethylamino -propylamino)-1H-pyrazolo[3,4-d]pyrimidin-3-yl]-phenyl}-benzenesulfonamide [Example 107]” the entry was “−− (−− = PIC50 less than 5.00)”.

Staying with this assay, now noted: read-out: TIE2 PIC50 TIE2-E2 assay.
With `Cn1nc(-c2ccc(NC(=O)Nc3cc(C(F)(F)F)ccc3F)cc2)c2cnc(NCCc3ccccc3)nc21` [Example 81, 1-(2-Fluoro-5-trifluoromethyl-phenyl)-3-{4-[(1-methyl-6-phenethylamino)-1H-pyrazolo[3,4-d]pyrimidin-3-yl]-phenyl} urea], the IC50 lay in the range of 1000 to 10000 nM. Same read-out and setting: with `CN(C)CCCNc1ncc2c(-c3ccc(NS(=O)(=O)c4cccc(Cl)c4Cl)cc3)nn(C)c2n1` [Example 106, 2,3-Dichloro-N-{4-[1-methyl-6-(3-dimethylamino-propylamino)-1H-pyrazolo[3,4-d]pyrimidin-3-yl]-phenyl}-benzenesulfonamide] the figure was over 10000 nM; with `Cc1cc(-c2nn(C)c3nc(NCCN4CCOCC4)ncc23)ccc1NC(=S)Nc1cccc(C(F)(F)F)c1` [Example 58, 1-{2-Methyl-4-[1-methyl-6-(2-morpholin-4-yl-ethylamino)-1H -pyrazolo[3,4-d]-pyrimidin-3-yl]-phenyl}-3-(3-trifluoromethyl-phenyl)-thiourea], 1000 to 10000 nM. Still for that read-out and setting: with `CCc1cccc(NC(=O)Nc2ccc(-c3nn(C)c4nc(NCCN5CCOCC5)ncc34)cc2C)c1` [Example 45, 1-(3-Ethyl-phenyl)-3-{2-methyl-4-[1-methyl-6-(2-morpholin-4-yl-ethylamino)-1H-pyrazolo[3,4-d]pyrimidin-3-yl]-phenyl}-urea] the figure was 100 to 1000 nM; with `CC1CCCCN1CCCNc1ncc2c(-c3ccc(NS(=O)(=O)c4cccc(Cl)c4Cl)cc3)nn(C)c2n1` (stereo not shown) [Example 104, 2,3-Dichloro-N-(4-{1-methyl-6-[3-(2-methyl-piperidin-1-yl)-propylamino]-1H-pyrazolo[3,4-d]pyrimidin-3-yl)-phenyl}-benzenesulfonamide], over 10000 nM. The same measure, in the same setting: with `Cn1nc(-c2ccc(NC(=O)Nc3cc(C(F)(F)F)ccc3F)cc2)c2cnc(NCc3ccccc3)nc21` [Example 62, 1-(2-fluoro-5-trifluoromethyl-phenyl)-3-{4-[1-methyl-6-(benzylamino)-1H-pyrazolo[3,4-d]pyrimidin-3-yl]-phenyl}-urea] the figure was 1000 to 10000 nM. For the molecule `Cn1nc(-c2ccc(NS(=O)(=O)c3cccc(Cl)c3Cl)cc2)c2cnc(NCCCN3CCCC3)nc21` [Example 105, 2,3-Dichloro-N-{4-[1-methyl-6-(3-pyrrolidin-1-yl-propylamino)-1H-pyrazolo[3,4-d]pyrimidin-3-yl]-phenyl}-benzenesulfonamide], the IC50 is over 10000 nM. Same read-out and setting: with `CC(=O)c1cccc(NC(=O)Nc2ccc(-c3nn(C)c4nc(NCCN5CCOCC5)ncc34)cc2)c1` [Example 40, 1-(3-Acetyl-phenyl)-3-{4-[1-methyl-6-(2-morpholin-4-yl-ethylamino)-1H-pyrazolo[3,4-d]pyrimidin-3-yl]-phenyl}-urea] the figure was 1000 to 10000 nM; with `CN1CCCC1CCNc1ncc2c(-c3ccc(NC(=O)Nc4cc(C(F)(F)F)ccc4F)c(F)c3)nn(C)c2n1` (stereo not shown) [Example 130], at most 39.8 nM. Take `CN(C)CCCNc1ncc2c(-c3ccc(NC(=O)Nc4cc(C(F)(F)F)ccc4F)cc3)nn(C)c2n1` [Example 87, 1-(2-Fluoro-5-trifluoromethyl-phenyl)-3-{4-[1-methyl-6-(3-dimethylamino-propylamino)-1H-pyrazolo[3,4-d]pyrimidin-3-yl]-phenyl} urea]: the IC50 was at most 39.8 nM. In the case of `Cn1nc(-c2ccc(NC(=O)Nc3cc(C(F)(F)F)ccc3F)cc2)c2cnc(NCCCCN)nc21` [Example 95, 1-(2-Fluoro-5-trifluoromethyl-phenyl)-3-{4-[1-methyl-6-(4-amino-butylamino)-1H-pyrazolo[3,4-d]pyrimidin-3-yl]-phenyl} urea], the IC50 was at most 39.8 nM.

Consider `Cn1nc(-c2ccc(NC(=O)Nc3cc(C(F)(F)F)ccc3F)cc2)c2cnc(NCCc3ccccn3)nc21` [Example 142], for which the IC50 was in the range of 100 to 1000 nM.

For `Cn1nc(-c2ccc(NC(=S)Nc3cccc(C(F)(F)F)c3)cc2)c2cnc(NCCN3CCOCC3)nc21` [Example 36, 1-{4-[1-Methyl-6-(2-morpholin-4-yl-ethylamino)-1H-pyrazolo[3,4-d]pyrimidin-3-yl]-phenyl}-3-(3-trifluoromethyl-phenyl)-thiourea], the IC50 was 100 to 1000 nM. On the same count and under the same terms, with `CCN(CC)CCCNc1ncc2c(-c3ccc(NC(=O)Nc4cc(C(F)(F)F)ccc4F)c(F)c3)nn(C)c2n1` [Example 129] the figure was at most 39.8 nM; with `Cn1nc(-c2ccc(NC(=O)Nc3cc(C(F)(F)F)ccc3F)cc2)c2cnc(NCCOC(=O)Nc3cc(C(F)(F)F)ccc3F)nc21` [Example 30, (Fluoro-trifluoromethyl-phenyl)-carbamic acid 2-(3-{4-[3-(fluoro-trifluoromethyl-phenyl)-ureido]-phenyl}-1-methyl-1H-pyrazolo[3,4-d]pyrimidin-6-ylamino)-ethyl ester], 1000 to 10000 nM; with `CN1CCN(CCCNc2ncc3c(-c4ccc(NC(=O)Nc5cc(C(F)(F)F)ccc5F)c(F)c4)nn(C)c3n2)CC1` [Example 131], at most 39.8 nM.

For `Cn1nc(-c2ccc(NC(=O)Nc3cc(C(F)(F)F)ccc3F)cc2)c2cnc(NCc3cccnc3)nc21` [Example 144, 1-(2-Fluoro-5-trifluoromethyl-phenyl)-3-{4-[(1-methyl-6-(pyridin-3-ylmethyl)-amino)-1H-pyrazolo[3,4-d]pyrimidin-3-yl]-phenyl} urea], the IC50 lay in the range of 100 to 1000 nM. Regarding `Cn1nc(-c2ccc(NS(=O)(=O)c3cccc(Cl)c3Cl)cc2)c2cnc(NCCCCN)nc21` [Example 120, 2,3-Dichloro-N-{4-[1-methyl-6-(4-amino-butylamino)-1H-pyrazolo[3,4-d]pyrimidin-3-yl]-phenyl}-benzenesulfonamide], the IC50 was in the range of 1000 to 10000 nM. Take `Cc1cc(-c2nn(C)c3nc(NCCN4CCOCC4)ncc23)ccc1NC(=O)Nc1cc(C(F)(F)F)cc(C(F)(F)F)c1` [Example 47, 1-(Bis-trifluoromethyl-phenyl)-3-{methyl-[methyl-(2-morpholin-4-yl-methylamino)-1H-pyrazolo[3,4-d]pyrimidin-3-yl]-phenyl}-urea]: the IC50 was 100 to 1000 nM. Turning to `CC(=O)c1cccc(NC(=O)Nc2ccc(-c3nn(C)c4nc(NCCN5CCOCC5)ncc34)cc2F)c1` [Example 54, 1-(3-Acetyl-phenyl)-3-{2-fluoro-4-[1-methyl-6-(2-morpholin-4-yl-ethylamino)-1H-pyrazolo[3,4-d]pyrimidin-3-yl]-phenyl}-urea], the IC50 fell in the range of 100 to 1000 nM. Still for that read-out and setting: with `Cn1nc(-c2ccc(NS(=O)(=O)c3cccc(Cl)c3Cl)cc2)c2cnc(NC(CO)CO)nc21` [Example 118, 2,3-Dichloro-N-{4-[1-methyl-6-(2-hydroxy-1-hydroxymethyl-ethylamino)-1H-pyrazolo[3,4-d]pyrimidin-3-yl]-phenyl}-benzenesulfonamide] the figure was over 10000 nM; with `CCNc1ncc2c(-c3ccc(NC(=O)Nc4ccc(C(F)(F)F)cc4F)cc3)nn(C)c2n1` [Example 162], 1000 to 10000 nM.

As for `CCc1cccc(NC(=O)Nc2ccc(-c3nn(C)c4nc(NCCN5CCOCC5)ncc34)cc2)c1` [Example 38, 1-(3-Ethyl-phenyl)-3-{4-[1-methyl-6-(2-morpholin-4-yl-ethylamino) -1H-pyrazolo[3,4-d]pyrimidin-3-yl]-phenyl}-urea], the IC50 lay in the range of 39.8 to 100 nM.
